Reference: the NIST ThermoML archive (doi:10.1016/j.fluid.2009.08.011)
± gives the expanded uncertainty stated by the source.

Assay: cn = amount concentration of the nth substance listed, in mol/dm3
Conditions: 101 kPa, Liquid, Alternating current cell with electrodes

CCCCn1cc[n+](C)c1.[I-] [1-butyl-3-methylimidazolium iodide] + O
Conditions	molar conductivity [S·m2/mol]
298.15 K, c1 = 0.0009058	0.0138 ± 0.0014
298.15 K, c1 = 0.001366	0.0137 ± 0.0014
298.15 K, c1 = 0.002017	0.0136 ± 0.0014
298.15 K, c1 = 0.002809	0.0135 ± 0.0014
298.15 K, c1 = 0.003715	0.0134 ± 0.0013
298.15 K, c1 = 0.00495	0.0133 ± 0.0013
298.15 K, c1 = 0.006082	0.0132 ± 0.0013
298.15 K, c1 = 0.007529	0.0131 ± 0.0013
298.15 K, c1 = 0.009093	0.0129 ± 0.0013
298.15 K, c1 = 0.01105	0.0127 ± 0.0013
298.15 K, c1 = 0.01306	0.0126 ± 0.0013
298.15 K, c1 = 0.01489	0.0125 ± 0.0012
298.15 K, c1 = 0.01706	0.0123 ± 0.0012
298.15 K, c1 = 0.01978	0.0122 ± 0.0012
298.15 K, c1 = 0.02281	0.012 ± 0.0012
308.15 K, c1 = 0.0004602	0.0139 ± 0.0014
308.15 K, c1 = 0.0008351	0.0138 ± 0.0014
308.15 K, c1 = 0.001278	0.0137 ± 0.0014
308.15 K, c1 = 0.001726	0.0135 ± 0.0014
308.15 K, c1 = 0.002088	0.0135 ± 0.0013
308.15 K, c1 = 0.00254	0.0133 ± 0.0013
308.15 K, c1 = 0.003341	0.0132 ± 0.0013
308.15 K, c1 = 0.004184	0.0131 ± 0.0013
308.15 K, c1 = 0.005066	0.0129 ± 0.0013
308.15 K, c1 = 0.006502	0.0127 ± 0.0013
308.15 K, c1 = 0.007827	0.0126 ± 0.0013
308.15 K, c1 = 0.009685	0.0124 ± 0.0012
308.15 K, c1 = 0.01153	0.0122 ± 0.0012
318.15 K, c1 = 0.0002077	0.0144 ± 0.0014
318.15 K, c1 = 0.0005721	0.0143 ± 0.0014
318.15 K, c1 = 0.000962	0.0142 ± 0.0014
318.15 K, c1 = 0.001339	0.0141 ± 0.0014
318.15 K, c1 = 0.002111	0.0139 ± 0.0014
318.15 K, c1 = 0.002755	0.0138 ± 0.0014
318.15 K, c1 = 0.003581	0.0136 ± 0.0014
318.15 K, c1 = 0.004395	0.0134 ± 0.0013
318.15 K, c1 = 0.005399	0.0132 ± 0.0013
318.15 K, c1 = 0.006692	0.013 ± 0.0013
318.15 K, c1 = 0.007942	0.0128 ± 0.0013
318.15 K, c1 = 0.009561	0.0126 ± 0.0013
318.15 K, c1 = 0.01162	0.0124 ± 0.0012
328.15 K, c1 = 0.0004059	0.0146 ± 0.0015
328.15 K, c1 = 0.00074	0.0145 ± 0.0014
328.15 K, c1 = 0.001116	0.0143 ± 0.0014
328.15 K, c1 = 0.001865	0.0141 ± 0.0014
328.15 K, c1 = 0.002626	0.0139 ± 0.0014
328.15 K, c1 = 0.003374	0.0138 ± 0.0014
328.15 K, c1 = 0.004072	0.0137 ± 0.0014
328.15 K, c1 = 0.005214	0.0134 ± 0.0013
328.15 K, c1 = 0.006444	0.0132 ± 0.0013
328.15 K, c1 = 0.007599	0.013 ± 0.0013
328.15 K, c1 = 0.009252	0.0128 ± 0.0013
328.15 K, c1 = 0.01045	0.0126 ± 0.0013
328.15 K, c1 = 0.01188	0.0125 ± 0.0012

CCCCCn1cc[n+](C)c1.[Br-] [1-pentyl-3-methylimidazolium bromide] + O
Conditions	molar conductivity [S·m2/mol]
298.15 K, c1 = 0.000384	0.0111 ± 0.0011
298.15 K, c1 = 0.0008844	0.0111 ± 0.0011
298.15 K, c1 = 0.001373	0.011 ± 0.0011
298.15 K, c1 = 0.001897	0.011 ± 0.0011
298.15 K, c1 = 0.002397	0.0109 ± 0.0011
298.15 K, c1 = 0.003002	0.0108 ± 0.0011
298.15 K, c1 = 0.004323	0.0107 ± 0.0011
298.15 K, c1 = 0.005743	0.0106 ± 0.0011
298.15 K, c1 = 0.00718	0.0105 ± 0.001
298.15 K, c1 = 0.008646	0.0104 ± 0.001
298.15 K, c1 = 0.01011	0.0102 ± 0.001
298.15 K, c1 = 0.01145	0.0102 ± 0.001
298.15 K, c1 = 0.01293	0.01 ± 0.001
308.15 K, c1 = 0.0006353	0.0115 ± 0.0011
308.15 K, c1 = 0.001306	0.0114 ± 0.0011
308.15 K, c1 = 0.002028	0.0113 ± 0.0011
308.15 K, c1 = 0.002681	0.0113 ± 0.0011
308.15 K, c1 = 0.003351	0.0112 ± 0.0011
308.15 K, c1 = 0.003975	0.0111 ± 0.0011
308.15 K, c1 = 0.004605	0.011 ± 0.0011
308.15 K, c1 = 0.00598	0.0109 ± 0.0011
308.15 K, c1 = 0.007554	0.0107 ± 0.0011
308.15 K, c1 = 0.008895	0.0106 ± 0.0011
308.15 K, c1 = 0.01033	0.0105 ± 0.001
308.15 K, c1 = 0.01176	0.0103 ± 0.001
308.15 K, c1 = 0.01422	0.0101 ± 0.001
318.15 K, c1 = 0.0004898	0.0136 ± 0.0014
318.15 K, c1 = 0.001056	0.0135 ± 0.0014
318.15 K, c1 = 0.002177	0.0134 ± 0.0013
318.15 K, c1 = 0.003249	0.0131 ± 0.0013
318.15 K, c1 = 0.004768	0.0128 ± 0.0013
318.15 K, c1 = 0.006798	0.0124 ± 0.0012
318.15 K, c1 = 0.009143	0.012 ± 0.0012
318.15 K, c1 = 0.01259	0.0115 ± 0.0011
318.15 K, c1 = 0.01687	0.0109 ± 0.0011
318.15 K, c1 = 0.02234	0.0103 ± 0.001
328.15 K, c1 = 0.0004268	0.0146 ± 0.0015
328.15 K, c1 = 0.0008311	0.0141 ± 0.0014
328.15 K, c1 = 0.001314	0.0139 ± 0.0014
328.15 K, c1 = 0.002252	0.0137 ± 0.0014
328.15 K, c1 = 0.003274	0.0135 ± 0.0014
328.15 K, c1 = 0.004773	0.0133 ± 0.0013
328.15 K, c1 = 0.006329	0.0131 ± 0.0013
328.15 K, c1 = 0.008289	0.0128 ± 0.0013
328.15 K, c1 = 0.01078	0.0125 ± 0.0013
328.15 K, c1 = 0.01389	0.0122 ± 0.0012
328.15 K, c1 = 0.01791	0.0118 ± 0.0012
328.15 K, c1 = 0.02233	0.0115 ± 0.0012
328.15 K, c1 = 0.02611	0.0111 ± 0.0011

CCCCn1cc[n+](C)c1.[Br-] [1-butyl-3-methylimidazolium bromide] + O
Conditions	molar conductivity [S·m2/mol]
298.15 K, c1 = 0.0004937	0.0131 ± 0.0013
298.15 K, c1 = 0.0008655	0.0131 ± 0.0013
298.15 K, c1 = 0.001621	0.013 ± 0.0013
298.15 K, c1 = 0.002706	0.0129 ± 0.0013
298.15 K, c1 = 0.003761	0.0128 ± 0.0013
298.15 K, c1 = 0.005815	0.0126 ± 0.0013
298.15 K, c1 = 0.008089	0.0125 ± 0.0013
298.15 K, c1 = 0.01047	0.0123 ± 0.0012
298.15 K, c1 = 0.01259	0.0122 ± 0.0012
308.15 K, c1 = 0.0004882	0.0137 ± 0.0014
308.15 K, c1 = 0.00104	0.0135 ± 0.0014
308.15 K, c1 = 0.001567	0.0135 ± 0.0013
308.15 K, c1 = 0.001953	0.0134 ± 0.0013
308.15 K, c1 = 0.002955	0.0132 ± 0.0013
308.15 K, c1 = 0.00388	0.0131 ± 0.0013
308.15 K, c1 = 0.004882	0.0129 ± 0.0013
308.15 K, c1 = 0.006552	0.0128 ± 0.0013
308.15 K, c1 = 0.008273	0.0127 ± 0.0013
308.15 K, c1 = 0.009904	0.0125 ± 0.0013
308.15 K, c1 = 0.01206	0.0124 ± 0.0012
318.15 K, c1 = 0.000457	0.015 ± 0.0015
318.15 K, c1 = 0.001096	0.0148 ± 0.0015
318.15 K, c1 = 0.001486	0.0147 ± 0.0015
318.15 K, c1 = 0.002393	0.0143 ± 0.0014
318.15 K, c1 = 0.003324	0.014 ± 0.0014
318.15 K, c1 = 0.004652	0.0138 ± 0.0014
318.15 K, c1 = 0.006235	0.0134 ± 0.0013
318.15 K, c1 = 0.008073	0.0131 ± 0.0013
318.15 K, c1 = 0.009991	0.0129 ± 0.0013
318.15 K, c1 = 0.012	0.0126 ± 0.0013
318.15 K, c1 = 0.0138	0.0124 ± 0.0012
328.15 K, c1 = 0.00043	0.0158 ± 0.0016
328.15 K, c1 = 0.000847	0.0157 ± 0.0016
328.15 K, c1 = 0.001805	0.0154 ± 0.0015
328.15 K, c1 = 0.002719	0.0152 ± 0.0015
328.15 K, c1 = 0.003628	0.015 ± 0.0015
328.15 K, c1 = 0.005125	0.0147 ± 0.0015
328.15 K, c1 = 0.006801	0.0144 ± 0.0014
328.15 K, c1 = 0.008998	0.014 ± 0.0014
328.15 K, c1 = 0.01111	0.0136 ± 0.0014
328.15 K, c1 = 0.01358	0.0132 ± 0.0013
